This passage reports melting point results from a melting point compilation (Tetko et al.; mined from patent text by program, amines drawn as free bases though some values may be those of a salt).

Each structure is given as a SMILES string.

Broadly, the melting point is the temperature of the solid-liquid transition. As for `CCOCCOc1ccc(CCNC(=O)c2cnc3ccccc3c2)cc1S(=O)(=O)NC(=S)NC`, the melting point was in the range of 88 to 91 °C.

For the molecule `CC(c1ccc(F)cc1)N1CC(C)(C)C(Oc2ccc(C#N)c(C(F)(F)F)c2)C1=O` (configuration not stated), the melting point lay in the range of 82 to 83 °C.

As to `CC(=O)c1cnn(C)c1S(N)(=O)=O`, the melting point was 153 to 162 °C.

For `CN1CCCC(c2nc(-c3ccncc3)c(-c3ccc(F)cc3)[nH]2)C1` (configuration not stated), the melting point lay in the range of 195 to 197 °C.

For `Cc1cc(C)c(Nc2nc(C)ccc2S(=O)(=O)c2ccc(OCc3ccccc3[N+](=O)[O-])cc2)c(C)c1`, the melting point lay within 153 to 155 °C.

In turn, `Nc1nc2c(sc(=O)n2CCCCC(=O)O)c(=O)[nH]1` had a melting point of 263 to 265 °C.

The molecule `CCCC1C(C(=O)OCC)C(O)(C(F)(F)F)OC(O)(C(F)(F)F)C1C(=O)OCC` (configuration not stated) showed a melting point of 128 to 132 °C.

`CCOC(=O)COc1cc(OCc2ccccc2)ccc1C#N` gave a melting point of 84 °C.

In the case of `CCOC(=O)CCCNC(=O)Cn1c(-c2cccc(Cl)c2)nc2cccnc21`, the melting point was in the range of 127 to 129 °C.

The molecule `CCOC(=O)/C(=N\OC1CCNC1=O)c1csc(NC(c2ccccc2)(c2ccccc2)c2ccccc2)n1` (configuration not stated) showed a melting point of 209 to 210 °C.

Molecule `O=C(O)C=CC=CCCCCCc1cccc2cncn12` yielded a melting point of 120 to 122 °C.

Turning to `CCOC(=O)c1cn(CC(F)(F)F)c2cc3c(cc2c1=O)OCO3`, the melting point lay in the range of 204 to 206 °C.

The molecule `CCCCC(=O)c1c(O)oc(=O)c(C(=O)CCCC)c1O` gave a melting point of 84 to 85 °C.

Consider `O=C(O)c1cccnc1Oc1cccc(C(F)(F)F)c1`, for which the melting point lay in the range of 149 to 151 °C.

The molecule `Cc1cc(CC(=O)c2ccccc2)on1` registered a melting point of 73 to 74 °C.

Regarding `CN1C(=O)C(c2c[nH]c3ncccc23)=C(c2cn(C(=O)OC(C)(C)C)c3ccccc23)C1=O`, the melting point was 180 °C.

`CCOC(=O)Nc1nc(-c2ccccc2)c(-c2nc3ccccc3c(=O)n2-c2cccc(C)c2)s1` returned a melting point of 261 to 263 °C.

Consider `O=C(Cn1c(-c2cccc(Cl)c2)nc2cccnc21)N1CCCCC1`, for which the melting point was in the range of 140 to 150 °C.

`CC(=O)NC[C@H]1CN(c2ccc(-c3nc(Cn4ccnc4)co3)c(F)c2)C(=O)O1` displayed a melting point of 198 to 200 °C.

Regarding `Cn1ccc2c(-n3cc(C(=O)O)c4cccnc43)ncnc21`, the melting point was above 260 °C.

The molecule `C(=C\c1nc(COc2cccc(CCCCn3ccnc3)c2)co1)/c1ccccc1` showed a melting point of 75 to 76 °C.

`CC(C)c1ccc(C(=O)Cc2cccs2)c(C(C)C)c1OS(N)(=O)=O` gave a melting point of 133 to 136 °C.

`CC1(C)NC(=O)c2ccc(Oc3nnnn3-c3ccccc3)cc21` yielded a melting point of 202 to 204 °C.

Regarding `C=C(c1ccc(N(C)C)cc1)c1ccc(N(C)C)cc1`, the melting point was found to be 115 °C.

`CCN1C(=O)Cc2cc(C(C)=O)ccc21` displayed a melting point of 141 to 145 °C.

In turn, `O=Cc1cccn1-c1ccc(F)cc1` came in with a melting point of 82 to 83 °C.

Regarding `N#Cc1ccc(-c2ccc(O)c(C(F)(F)F)c2)cc1`, the melting point is 201 to 203 °C.

With `CCCCCn1c(=O)c2cc(C(=O)O)cn2c2ccccc21`, the melting point was 184 to 186 °C.

Regarding `CC(C)(C)[Si](C)(C)OC(CCCNCCc1ccccc1)COc1ccc2c(=O)cc(-c3ccccc3)oc2c1` (configuration not stated), the melting point lay within 89 to 91 °C.

Turning to `CCOC(=O)c1cn2c3c(c(C(C#N)C(=O)OCC)c(F)cc3c1=O)CCN2C` (configuration not stated), the melting point fell in the range of 153 to 154 °C.

`CCOC(=O)c1ccccc1N(CC(=O)N(C)c1ccccc1)C(=O)CNC(=O)Nc1cccc(CO)c1` yielded a melting point of 184 °C.

For `c1ccc(OCC2CN(Cc3nc4ccccc4[nH]3)CCO2)cc1` (racemic), the melting point lay within 171 to 172 °C.

Take `CC1=CC(OC(=O)c2nc[nH]c2C)C(O)C(C)(C)CC1=O` (configuration not stated): the melting point lay in the range of 99 to 101 °C.

Regarding `CC(=O)Nc1c(C(=O)c2cccc(NS(C)(=O)=O)c2)[nH]c2cc(Cl)ccc12`, the melting point lay within 133 to 142 °C.

Molecule `CC(C)c1cccc(C(C)C)c1NC(=S)C1c2ccccc2COc2ccc(Br)cc21` (configuration not stated) yielded a melting point of 190 to 191 °C.

Regarding `CCNC(=O)c1c(F)cccc1S(=O)C(C)(C)C` (configuration not stated), the melting point was 114 to 116 °C.

Regarding `Cc1c(C)c2c(c(C)c1O)CCC(C)(CC(=O)O)O2` (configuration not stated), the melting point fell in the range of 168 to 171 °C.

`NS(=O)(=O)c1ccc(-c2cc(-c3nc(-c4ccc(C(F)(F)F)cc4)cc(C(F)(F)F)n3)ccn2)s1` registered a melting point of 262 °C.

Molecule `CCOC(=O)Cn1nnnc1C(=O)OCC` registered a melting point of 26 to 29.5 °C.

Regarding `Cc1c(C)c2c(c(C)c1N)CC(C)(C)O2`, the melting point worked out at 110 °C.

With `COCOc1cccc(-c2ccc(-c3ccccc3)cc2-c2ccc3c(c2)C(C)(C)CCC3(C)C)c1C(=O)O`, the melting point lay in the range of 103 to 104 °C.

Consider `Cc1nn(-c2ccc(Cl)nn2)c(C)c1N`, for which the melting point fell in the range of 165 to 168 °C.

For `COC(=O)c1sc2cc(OCc3cccnc3)ccc2c1Cl`, the melting point fell in the range of 148 to 150 °C.

`CS(=O)(=O)N=c1oc2ccccc2o1` registered a melting point of 161 to 163 °C.

Molecule `CC(=O)SC(CC(=O)c1ccc(C(C)C)cc1)C(=O)O` (configuration not stated) yielded a melting point of 84 to 86 °C.

The molecule `O=S(=O)(c1ccc(Cl)cc1)C(c1cc(F)ccc1F)c1cc(N2CCCS2(=O)=O)ncc1Cl` (configuration not stated) registered a melting point of 219 to 221 °C.

In turn, `c1ccc(-c2cc(-c3ccccc3)c(N3CCN(c4ncccn4)CC3)nn2)cc1` yielded a melting point of 71 to 74 °C.

The molecule `CCOC(=O)C1=Cc2cc(C(F)F)ccc2OC1C(F)(F)F` (configuration not stated) gave a melting point of 135 to 136 °C.

Turning to `Cc1c(C)c(N2Cc3ccccc3C2)c(C)c2c1OC(C)(C)C2c1ccc(C(C)C)cc1` (configuration not stated), the melting point fell in the range of 113 to 114 °C.

As for `N=C(Nc1nc(-c2ccccn2)nc2ccccc12)C(F)(F)F`, the melting point stood at 189 °C.

The molecule `O=C1C(Cl)=Cc2c(Cl)cc3c4c(c(Cl)cc1c24)C=C(Cl)C3=O` had a melting point of 315 to 320 °C.

Regarding `CC(C)C(N)CCCCCCCCC(C)(C)C(=O)O` (configuration not stated), the melting point fell in the range of 156 to 159 °C.

`CCOc1cc(N)c(Cl)cc1C(=O)NCC1CN(Cc2ccccc2)CCCO1` (configuration not stated): the melting point is 180 to 183 °C.

`CCCCn1c(CC)ccc1Cc1cccc(NC(N)=O)c1` yielded a melting point of 103 to 106 °C.

In the case of `COc1cc(SC)sc1C1NC(C)(C)CO1` (configuration not stated), the melting point was in the range of 56 to 58 °C.

Molecule `O=C1C(=O)N(CCN2CCN(C(c3ccccc3)c3ccccc3)CC2)c2ccccc21` came in with a melting point of 145 to 148 °C.

The molecule `CCc1nc2c(cnn2CC)c(NC2CCOCC2)c1CN(Cc1ccc(OC)c(-c2cccc(CN3CCN(C)CC3)c2)c1)C(=O)c1cccc(C(N)=O)c1` returned a melting point of 120 to 123 °C.

Consider `O=C(Nc1ccc(O)cc1)c1c[nH]c2c1C(=O)CCCC2`, for which the melting point is 178 to 179 °C.

`CC(=NOc1ccc(F)cc1)c1ccc(C(F)(F)F)cc1NS(=O)(=O)C(F)(F)F` registered a melting point of 95 to 96 °C.

For `CN(CCN1CCOCC1)Cc1ccc(COc2cccc3c2CN(C2CCC(=O)NC2=O)C3=O)cc1` (configuration not stated), the melting point fell in the range of 193 to 195 °C.

`COc1cc(Nc2c(C#N)cnc3cc(-c4cccc(CCN5CCOCC5)c4)ccc23)c(Cl)cc1Cl` registered a melting point of 146 to 148 °C.

For `O=Cc1ccc(OCc2ccccc2)c(CCl)n1`, the melting point was 72 to 73 °C.

In the case of `Cc1nn(-c2ccc(C(F)(F)F)cn2)cc1COc1cc(C=O)n(C)n1`, the melting point is 130 to 131 °C.

`CC12CCC(C(=O)O)=CC1=CCC1C2CCC2(C)C(C(=O)C3CCCCC3)CCC12` (configuration not stated) had a melting point of 217 to 220 °C.

Regarding `NS(=O)(=O)c1cccc(-c2cc(-c3nc(-c4ccc(C(F)(F)F)cc4)cc(C(F)F)n3)ccn2)c1`, the melting point worked out at 234 °C.

Take `O=C1Nc2ccccc2N(C(=O)CN2CCCCC2CN2CCCCC2)c2ccccc21` (configuration not stated): the melting point lay in the range of 220 to 221 °C.

Molecule `C[C@@H]1CN(C(=O)[C@@](C)(O)C(F)(F)F)[C@@H](C)CN1S(=O)(=O)c1ccc(C(=O)N(C)C)cc1` had a melting point of 86 to 87 °C.

In turn, `ON=C(CCN1CCN(c2ccccn2)CC1)c1ccc(F)cc1` gave a melting point of 159 to 160 °C.

Regarding `C=Cc1c(C)c2cc3nc(c4c5[nH]c(cc6nc(cc1[nH]2)C(C)=C6CC)c(C)c5C(=O)C4)C(CCC(=O)OC)C3C` (configuration not stated), the melting point fell in the range of 217 to 219 °C.

For `Cc1cccc(C)c1C(=Nc1ccc(F)cc1)NC(=NC1CCCCC1)N1CCCCC1C` (configuration not stated), the melting point lay in the range of 167 to 168 °C.

`CC(=O)OCC(C)(C)C(=O)O` displayed a melting point of 56 to 59 °C.

`Cn1c(=O)c(C(=O)NC2CCCCC2)c(Cl)c2cc(O)ccc21`: the melting point is 186 °C.

For `O=C(CNc1ccc2[nH]c(=O)oc2c1)N1CCC(Cc2ccc(F)cc2)CC1`, the melting point lay within 202 to 205 °C.

`CSC(=O)c1c(C(F)F)nc(C(F)(F)F)c(C(=O)SC)c1NC1CC1` yielded a melting point of 85 to 86 °C.

Regarding `CS(=O)(=O)Nc1ccc(CC(NC(=O)C(c2ccccc2)c2ccccc2)c2ccccc2)cc1` (configuration not stated), the melting point is 200 to 202 °C.

For the molecule `COc1cc(C=O)c(OC)c(C)c1C`, the melting point is 69 to 71 °C.

The molecule `Nc1ccc(-c2nc3ccccc3s2)cc1Br` displayed a melting point of 160 to 161 °C.

`CN(C)CCCN(c1ccccc1)c1ncccc1NC(=O)c1ccccc1[N+](=O)[O-]`: the melting point was in the range of 134 to 136 °C.

`Cc1nc2c(F)cccc2c(Cl)c1CCCl` gave a melting point of 101 to 103 °C.

In the case of `COc1ccc2c(c1)c1c3c(c(-c4ccccc4Cl)cc1n2CCO)C(=O)NC3=O`, the melting point was in the range of 255 to 257 °C.

`O=C(O)c1ccc(NCCCCCCOc2ccccc2)cc1` displayed a melting point of 168 to 170 °C.

Take `O=C1C(c2ccccc2)=C(c2c(Cl)cccc2Cl)C(=O)N1c1ccc(Cl)cc1`: the melting point came to 134 °C.

Take `CCCOc1cc([N+](=O)[O-])ccc1[N+](=O)[O-]`: the melting point was in the range of 52 to 54 °C.

`COC(=O)CCCc1cc2cc(Cl)ccc2n1S(=O)(=O)c1cccc2cccnc12` showed a melting point of 120 to 124 °C.

`CCOC(=O)C1=C(N)NC2=C(C(=O)CCC2)C1c1ccccc1Br` (configuration not stated): the melting point is 245 °C.

As for `CCSN(C)C(=O)Nc1ccc(Br)cc1`, the melting point is below 50 °C.

As for `C=CCCn1cnc2c1c(=O)n(C)c(=O)n2C`, the melting point worked out at 110 °C.
